# Test results reported in the supplement of paper PMC13380429.
# Experiments:
# Details in all cases: 72 h
# Vero E6 [1] = experiment: relative viability EC50 (midpoint between 100% and the lowest measured viability); higher = less toxic
# U2OS [2] = experiment: as above
# Caco-2 [3] = experiment: as above
# Calu-3 [4] = experiment: as above
# HepG2 [5] = experiment: as above
# Vero E6 [6] = experiment: cell viability relative to DMSO; higher = less toxic
# U2OS [7] = experiment: as above
# Caco-2 [8] = experiment: as above
# Calu-3 [9] = experiment: as above
# HepG2 [10] = experiment: as above
# Vero E6 [11] = experiment: drug sensitivity score (DSS) for viability; higher = more toxic; extreme values may be limits of the assay
# U2OS [12] = experiment: as above
# Caco-2 [13] = experiment: as above
# Calu-3 [14] = experiment: as above
# HepG2 [15] = experiment: as above
Structure (SMILES),relative viability EC50 (Vero E6 [1]),relative viability EC50 (U2OS [2]),relative viability EC50 (Caco-2 [3]),relative viability EC50 (Calu-3 [4]),relative viability EC50 (HepG2 [5]),cell viability (Vero E6 [6]; 1 nM),cell viability (Vero E6 [6]; 10 nM),cell viability (Vero E6 [6]; 100 nM),cell viability (Vero E6 [6]; 1000 nM),cell viability (Vero E6 [6]; 10000 nM),cell viability (U2OS [7]; 1 nM),cell viability (U2OS [7]; 10 nM),cell viability (U2OS [7]; 100 nM),cell viability (U2OS [7]; 1000 nM),cell viability (U2OS [7]; 10000 nM),cell viability (Caco-2 [8]; 1 nM),cell viability (Caco-2 [8]; 10 nM),cell viability (Caco-2 [8]; 100 nM),cell viability (Caco-2 [8]; 1000 nM),cell viability (Caco-2 [8]; 10000 nM),cell viability (Calu-3 [9]; 1 nM),cell viability (Calu-3 [9]; 10 nM),cell viability (Calu-3 [9]; 100 nM),cell viability (Calu-3 [9]; 1000 nM),cell viability (Calu-3 [9]; 10000 nM),cell viability (HepG2 [10]; 1 nM),cell viability (HepG2 [10]; 10 nM),cell viability (HepG2 [10]; 100 nM),cell viability (HepG2 [10]; 1000 nM),cell viability (HepG2 [10]; 10000 nM),drug sensitivity score (Vero E6 [11]),drug sensitivity score (U2OS [12]),drug sensitivity score (Caco-2 [13]),drug sensitivity score (Calu-3 [14]),drug sensitivity score (HepG2 [15])
CC[C@@H](C)N(C)C(=O)c1cc2ccccc2c(-c2ccccc2Cl)n1,> 10 µM,> 10 µM,> 10 µM,> 10 µM,> 10 µM,99.4%,105%,100%,102%,107%,102%,98.3%,102%,97.3%,103%,106%,104%,95.6%,96.4%,98.6%,108%,106%,93.8%,95.8%,99.2%,92.5%,113%,89.6%,100%,107%,0,0,0,0,0
Cc1ncc([N+](=O)[O-])n1CC(O)CCl (stereo not given) [ornidazole],> 10 µM,> 10 µM,> 10 µM,> 10 µM,> 10 µM,101%,96.6%,97.4%,96%,104%,91.3%,97.1%,91.8%,95.8%,102%,103%,101%,99.1%,102%,98.4%,99.9%,95.1%,93.8%,96.1%,108%,101%,98%,91.6%,107%,99.7%,0,0,0,0,0
CCOc1cc(C=O)ccc1O [ethyl-vanillin],> 10 µM,> 10 µM,> 10 µM,> 10 µM,> 10 µM,106%,92.8%,107%,95.1%,91.6%,97.4%,102%,96.2%,101%,99.9%,99.3%,92.5%,98.5%,78.4%,101%,98.6%,108%,102%,97.5%,99.3%,117%,99.5%,96.2%,103%,97.1%,0,0,0,0,0
O=C1c2c(O)ccc(O)c2C(=O)c2c(NCCNCCO)ccc(NCCNCCO)c21 [mitoxantrone],0.35 µM,0.514 µM,0.565 µM,0.15 µM,0.11 µM,98.8%,96%,66.5%,51.4%,13.6%,95.8%,102%,88.7%,30.6%,0.7%,93.3%,96.5%,86.2%,53%,22.3%,104%,98.4%,65.1%,46.7%,28.9%,93.1%,82.4%,53.2%,21.8%,1.7%,13.9,14.6,10.7,14.6,21.6
O=C(Nc1cc2cc[nH]c2cn1)c1ccccc1 [OAC1],> 10 µM,> 10 µM,> 10 µM,> 10 µM,> 10 µM,97.1%,99.7%,94.3%,99.1%,86.2%,105%,95.8%,101%,93.3%,83.3%,102%,97%,100%,85.6%,77.3%,99.8%,96.8%,103%,102%,89.3%,104%,116%,101%,113%,80.8%,0.2,1,2.3,0,0.3
O=C1CC(=O)c2c(Cl)c(Cl)c(Cl)c(Cl)c21 [TCID],> 10 µM,> 10 µM,> 10 µM,> 10 µM,> 10 µM,101%,99.1%,97%,101%,100%,101%,103%,106%,104%,94.6%,120%,102%,98.3%,91.1%,95.6%,88%,88.5%,91.7%,77.9%,89.2%,99.9%,101%,104%,107%,107%,0,0,0,0,0
N[C@@H](CSS(=O)(=O)O)C(=O)O [S-sulfo-L-cysteine],> 10 µM,> 10 µM,> 10 µM,> 10 µM,> 10 µM,98.3%,96.2%,103%,97.5%,102%,94.4%,102%,95%,102%,98.4%,97.9%,105%,88.1%,100%,94.2%,97.7%,92.6%,94.4%,95.8%,95.2%,108%,101%,103%,94.8%,94.5%,0,0,0,0,0
C[C@@H]1CN([C@H]2CC[C@](C#N)(c3ccc(F)cc3)CC2)CC[C@]1(C(=O)O)c1ccccc1 [levocabastine],> 10 µM,> 10 µM,> 10 µM,> 10 µM,> 10 µM,102%,106%,100%,104%,100%,97.8%,98%,104%,98%,105%,103%,104%,108%,99.5%,99.3%,94.2%,99.3%,109%,99.4%,96.2%,91.5%,99.6%,93.6%,93.7%,94.2%,0,0,0,0,0
N[C@@H](Cn1ccc(=O)n(Cc2ccccc2C(=O)O)c1=O)C(=O)O [UBP-302],> 10 µM,> 10 µM,> 10 µM,> 10 µM,> 10 µM,101%,98.6%,103%,101%,102%,99%,95.5%,97.6%,92.7%,98.7%,91.6%,93%,91.2%,89.6%,98.1%,105%,94.8%,107%,115%,107%,103%,101%,97.9%,101%,104%,0,0,0,0,0
CN(C)CCc1c[nH]c2ccc(C[C@H]3COC(=O)N3)cc12 [zolmitriptan],> 10 µM,> 10 µM,> 10 µM,> 10 µM,> 10 µM,108%,98.3%,106%,106%,104%,99%,99.7%,96.8%,103%,96.9%,96.9%,102%,96.8%,110%,97.8%,92.2%,94.2%,95.2%,93.2%,97%,112%,111%,99%,87.6%,111%,0,0,0,0,0
CNC(=O)c1ccc(-c2cnc3ncc(Cc4ccc5ncccc5c4)n3n2)cc1F [INC-280],> 10 µM,> 10 µM,> 10 µM,> 10 µM,> 10 µM,95.7%,98.4%,91.5%,96.1%,83%,107%,95.7%,99.6%,98.1%,102%,97.9%,90.7%,96.6%,104%,88.4%,101%,103%,99.9%,101%,110%,89.2%,100%,88.8%,111%,82.6%,0.3,0,0,0,0.2
C[C@H](CCC(=O)O)[C@H]1CC[C@H]2[C@@H]3C[C@H](O)[C@@H]4C[C@H](O)CC[C@]4(C)[C@H]3CC[C@]12C [Hyodeoxycholic acid (HDCA)],> 10 µM,> 10 µM,> 10 µM,> 10 µM,> 10 µM,92.3%,95.4%,95.2%,94.3%,108%,95.8%,103%,105%,104%,104%,88.5%,100%,99.3%,101%,106%,108%,103%,87.8%,107%,101%,95.6%,102%,104%,93.9%,106%,0,0,0,0,0
C[C@@H]1C(=O)O[C@H]2C[C@@]34[C@H]5C[C@@H](C(C)(C)C)[C@]36[C@@H](OC(=O)[C@@H]6O)O[C@@]4(C(=O)O5)[C@]21O [Ginkgolide A],> 10 µM,> 10 µM,> 10 µM,> 10 µM,> 10 µM,104%,95.1%,98.9%,97%,103%,105%,98.4%,102%,100%,104%,101%,97.3%,98.2%,93.4%,95.6%,104%,103%,96.4%,106%,105%,101%,88.5%,100%,92.6%,94.3%,0,0,0,0,0
CC(=O)C(=Cc1cc(O)c(O)c([N+](=O)[O-])c1)C(C)=O [nitecapone],> 10 µM,> 10 µM,> 10 µM,> 10 µM,> 10 µM,109%,107%,105%,98.7%,105%,98.8%,102%,96.6%,103%,95.6%,94.7%,92.1%,99.9%,95.7%,96.4%,97.5%,93.7%,105%,109%,110%,103%,94%,96.5%,98.4%,93.7%,0,0,0,0,0
